According to US20250084080A1, “CRYSTALLINE AND SALT FORMS OF AN NLRP3 INHIBITOR” (BioAge Labs, Inc., priority 2023, published 2025):

Legend:
Assay type in all cases: physicochemical
[1] = Bulk stability (solid state, 1 week; HPLC, XRPD, IC, color); parameters: key to CL (color): A: no change of color; B: slight discoloration; C: medium discoloration; D: strong discoloration; conditions: for Bulk (HPLC) Purity / Bulk (XRPD) / CL (color) / Stoichiometry by IC (Free form:HCl = 1:x): Solid state
Experimental: Bulk stability of free form Pattern B was evaluated at 25° C./92.5% RH in an open container, at 40° C./75% RH in an open container and at 60° C. in a tight container over 1 week.

[2] = Solubility at 37° C. in buffers and biorelevant media, XRPD of residual solid; conditions: for solubility at 2 h / solubility at 24 h: thermodynamic from solid
Experimental: Solubility of BAL-0748 free form Pattern B was investigated in pH 1.2 HCl buffer, pH 4.5 50 mM acetate buffer, pH 6.8 50 mM phosphate buffer, water, pH 1.6 FaSSGF, pH 6.5 FaSSIF-v1, pH 5.0 FeSSIF-v1 and 2% HPMC+1% Pluronic F68 in pH 4.5 50 mM acetate buffer at 37° C. for 2 h and 24 h. Residual solids after the solubility test were analyzed by XRPD.
Solubility of the free form Pattern A, the HCl salt Pattern A, the phosphate salt Pattern A, and the sodium salt Pattern A was measured in pH 1.2 HCl buffer, pH 4.5 acetate buffer (50 mM), pH 6.8 phosphate buffer (50 mM), water, pH 1.6 FaSSGF, pH 6.5 FaSSIF-v1, pH 5.0 FeSSIF-v1, and 2% HPMC+1% Pluronic F68 in pH 4.5 acetate buffer (50 mM) at 37° C. for 2 hours and 24 hours.
10.4 mg of the free form Pattern A, 10.0 mg of the free form Pattern B, 10.8 mg of the HCl salt Pattern A, 12.2 mg of the phosphate salt Pattern A, or 10.5 mg of the sodium salt Pattern A was weighed into a 20 mL glass vial, respectively. 5 mL of solubility medium was added. The salt amount used was equivalent to 10 mg anhydrous free form. Obtained suspensions were stirred at 37° C. at 400 rpm and sampled at 2 hours and at 24 hours. The samples were centrifuged at 37° C. at 14,000 rpm for 5 min. Supernatants were analyzed by HPLC and PH meter for solubility and pH value, respectively. Residual solids (wet cakes) from the 24 hours samples were also characterized by XRPD to determine physical form.

[3] = Hygroscopicity by dynamic vapor sorption (DVS) at 25° C.; conditions: for Desorp. (%) / Sorp. (%): DVS 25° C.
Experimental: Dynamic vapor sorption (DVS) was performed on an Intrinsic, Advantage or Adventure with an oven temperature of 25° C. using water as a solvent. The sample mass was about 5-10 mg using the following method: • Cycle: 40-0-95-0-40% RH • Stage Step: 10% • Equilibrium: 0.002 dm/dt (%/min) • Minimum dm/dt stability duration: 60 min • Maximum dm/dt stage time: 360 min. Hygroscopicity of free form Pattern B was evaluated by dynamic vapor sorption (DVS) test at 25° C. […] It absorbed about 0.8% water at 80% RH at 25° C.

[4] = 25° C./92.5% RH open, 40° C./75% RH open, 60° C. tight container
[5] = aqueous buffer, pH 4.5 acetate buffer (50 mM), 37° C.
[6] = aqueous buffer, pH 6.8 phosphate buffer (50 mM), 37° C.
[7] = aqueous with cosolvent or surfactant or cyclodextrin, 2% HPMC + 1% Pluronic F68 in pH 4.5 acetate buffer (50 mM), 37° C.
[8] = fassgf or other biorelevant, FaSSGF, pH 1.6, 37° C.
[9] = simulated gastric fluid, pH 1.2 HCl buffer, 37° C.

SMILES: CCOc1cc(C(=O)N(C)Cc2cnc(CO)c3cn[nH]c23)ccc1-c1cc(F)cc(F)c1.Cl [HCl salt Pattern A, 2-ethoxy-3′,5′-difluoro-N-((4-(hydroxymethyl)-1H-pyrazolo[4,3-c]pyridin-7-yl)methyl)-N-methyl-[1,1′-biphenyl]-4-carboxamide hydrochloric acid salt]
- Bulk stability, chemical and physical [1, 4]: chemically and physically stable
- Degradation by HPLC [1, 4]: no obvious degradation
- Form change by XRPD [1, 4]: no form change
- Bulk (HPLC) Purity ([1]; 25° C./92.5% RH, open): 99.1%
- Bulk (XRPD) ([1]; 25° C./92.5% RH, open): No form change
- CL (color) ([1]; 25° C./92.5% RH, open): A
- Stoichiometry by IC (Free form:HCl = 1:x) ([1]; 25° C./92.5% RH, open): 0.97
- Bulk (HPLC) Purity ([1]; 40° C./75% RH, open): 98.9%
- Bulk (XRPD) ([1]; 40° C./75% RH, open): No form change
- CL (color) ([1]; 40° C./75% RH, open): A
- Stoichiometry by IC (Free form:HCl = 1:x) ([1]; 40° C./75% RH, open): 0.99
- Bulk (HPLC) Purity ([1]; 60° C., closed): 98.9%
- Bulk (XRPD) ([1]; 60° C., closed): No form change
- CL (color) ([1]; 60° C., closed): A
- Stoichiometry by IC (Free form:HCl = 1:x) ([1]; 60° C., closed): 0.97
- pH of supernatant at 24 h ([2]; 2% HPMC + 1% Pluronic F68 in pH 4.5 acetate buffer (50 mM), 37° C.): (4.4)
- Solubility compared with the free form Pattern A ([2]; 2% HPMC+1% Pluronic F68 in acetate buffer (pH 4.5)): comparable solubility
- pH of supernatant at 24 h ([2]; FaSSGF, pH 1.6, 37° C.): (1.5)
- pH of supernatant at 24 h ([2]; FaSSIF-v1, pH 6.5, 37° C.): (6.3)
- pH of supernatant at 24 h ([2]; FeSSIF-v1, pH 5.0, 37° C.): (4.9)
- pH of supernatant at 24 h ([2]; Water, 37° C.): (2.5)
- solubility at 2 h [2, 5]: 14.4 µg/mL
- solubility at 24 h [2, 5]: 10 µg/mL
- solubility at 2 h [2, 6]: 3.3 µg/mL
- solubility at 24 h [2, 6]: 2.3 µg/mL
- solubility at 2 h [2, 7]: 29.5 µg/mL
- solubility at 24 h [2, 7]: 26.7 µg/mL
- solubility at 2 h [2, 8]: 556 µg/mL
- solubility at 24 h [2, 8]: 522 µg/mL
- pH of supernatant at 24 h ([2]; pH 1.2 HCl buffer, 37° C.): (1.2)
- pH of supernatant at 24 h ([2]; pH 4.5 acetate buffer (50 mM), 37° C.): (4.3)
- Higher solubility compared with the free form Pattern A ([2]; pH 5.0 FeSSIF-v1, 2 h): 1 fold
- pH of supernatant at 24 h ([2]; pH 6.8 phosphate buffer (50 mM), 37° C.): (6.7)
- Solubility compared with the free form Pattern A ([2]; pure water): obviously higher solubility
- solubility at 2 h [2, 9]: 362 µg/mL
- solubility at 24 h [2, 9]: 277 µg/mL
- solubility at 2 h ([2]; FaSSIF-v1, pH 6.5, 37° C.): 11.8 µg/mL
- solubility at 24 h ([2]; FaSSIF-v1, pH 6.5, 37° C.): 8.4 µg/mL
- solubility at 2 h ([2]; FeSSIF-v1, pH 5.0, 37° C.): 238 µg/mL
- solubility at 24 h ([2]; FeSSIF-v1, pH 5.0, 37° C.): 151 µg/mL
- solubility at 2 h ([2]; Water, 37° C.): 568 µg/mL
- solubility at 24 h ([2]; Water, 37° C.): 504 µg/mL
- Desorp. (%) ([3]; 0% RH, 1st desorption): 0.51%
- Sorp. (%) ([3]; 0% RH, 1st sorption): 0.51%
- Desorp. (%) ([3]; 0% RH, 2nd desorption): 0.15%
- Sorp. (%) ([3]; 0% RH, 2nd sorption): 0.15%
- Desorp. (%) ([3]; 10% RH, 1st desorption): 0.61%
- Sorp. (%) ([3]; 10% RH, 1st sorption): 0.61%
- Desorp. (%) ([3]; 10% RH, 2nd desorption): 0.24%
- Sorp. (%) ([3]; 10% RH, 2nd sorption): 0.20%
- Desorp. (%) ([3]; 20% RH, 1st desorption): 0.65%
- Sorp. (%) ([3]; 20% RH, 1st sorption): 0.68%
- Desorp. (%) ([3]; 20% RH, 2nd desorption): 0.28%
- Sorp. (%) ([3]; 20% RH, 2nd sorption): 0.24%
- Desorp. (%) ([3]; 30% RH, 1st desorption): 0.69%
- Sorp. (%) ([3]; 30% RH, 1st sorption): 0.78%
- Desorp. (%) ([3]; 30% RH, 2nd desorption): 0.35%
- Sorp. (%) ([3]; 30% RH, 2nd sorption): 0.27%
- Desorp. (%) ([3]; 40% RH, 1st desorption): 0.72%
- Sorp. (%) ([3]; 40% RH, 1st sorption): 0.75%
- Desorp. (%) ([3]; 40% RH, 2nd desorption): 0.42%
- Sorp. (%) ([3]; 40% RH, 2nd sorption): 0.29%
- Sorp. (%) ([3]; 50% RH, 1st sorption): 0.80%
- Desorp. (%) ([3]; 50% RH, 2nd desorption): 0.54%
- Sorp. (%) ([3]; 60% RH, 1st sorption): 0.85%
- Desorp. (%) ([3]; 60% RH, 2nd desorption): 0.68%
- Sorp. (%) ([3]; 70% RH, 1st sorption): 0.96%
- Desorp. (%) ([3]; 70% RH, 2nd desorption): 0.84%
- Sorp. (%) ([3]; 80% RH, 1st sorption): 1.00%
- Desorp. (%) ([3]; 80% RH, 2nd desorption): 1.07%
- Sorp. (%) ([3]; 90% RH, 1st sorption): 1.37%
- Desorp. (%) ([3]; 90% RH, 2nd desorption): 1.54%
- Sorp. (%) ([3]; 95% RH, 1st sorption): 2.20%
- Desorp. (%) ([3]; 95% RH, 2nd desorption): 2.20%
- XRPD after DVS test ([3]; DVS at 25° C.): No form change
- Water absorbed at 80% RH ([3]; DVS at 25° C., 80% RH): It absorbed 1.0%
